Reference: patent US20110184188A1, “Insecticidal Benzenedicarboxamide Derivative” (priority 2008, published 2011)

Tested on: not listed separately
Assay: logP(acid) by reverse phase (C18) chromatography at pH 2.3
Assay type: physicochemical
Details: pH 2.3

| Structure (SMILES) | chromatographic logP |
| --- | --- |
| Cc1nc(Cn2nc(C(F)(F)C(F)(F)F)cc2C(F)(F)C(F)(F)F)ccc1N [SYNTHESIS EXAMPLE 81-2] | 2.83 |
| Cc1cc(Cn2nc(C(F)(F)F)nc2C(F)(F)F)ncc1[N+](=O)[O-] [SYNTHESIS EXAMPLE 69-1] | 3.38 |

Same assay, conditions: pH 2.3; reverse phase (C18) chromatography, pH2.3, 0.1% phosphoric acid / acetonitrile gradient 10-95%; read-out: logP (acid)

| Structure (SMILES) | chromatographic logP |
| --- | --- |
| Cc1nc(Cn2nnc(C(F)(F)C(F)(F)C(F)(F)F)n2)ccc1N [SYNTHESIS EXAMPLE 86-2] | 2.3 |

Same assay, conditions: reverse phase (C18) chromatography at pH 2.3

| Structure (SMILES) | logP (acid) |
| --- | --- |
| Cc1nc(Cn2cc(C(F)(F)C(F)(F)F)c(C(F)(F)C(F)(F)F)n2)ccc1NC(=O)c1cccc(Br)c1C(=O)N[C@@H](C)C[S+](C)[O-] (stereo partly shown) [13-138] | logP (acid) 3.03 |
| CSC[C@H](C)NC(=O)c1c(Cl)ccc(Cl)c1C(=O)Nc1ccc(Cn2nc(C(F)(F)F)nc2C(F)(F)F)cc1C [11-26] | logP (acid) 4.25 |
| Cc1nc(Cn2nc(C(F)(F)C(F)(F)F)cc2C(F)(F)F)ccc1NC(=O)c1cccc(I)c1C(=O)NC(C)C[S+](C)[O-] (mixture of isomers) [13-190] | logP (acid) 2.76 |
| Cc1nc(Cn2nc(C(F)(F)F)cc2C(F)(F)F)ccc1NC(=O)c1cc(Cl)cc(Cl)c1C(=O)N[C@@H](C)C[S+](C)[O-] (stereo partly shown) [10-2] | logP (acid) 2.83 |
| CSC[C@H](C)NC(=O)c1c(Cl)ccc(Br)c1C(=O)Nc1ccc(Cn2nc(C(F)(F)F)cc2C(F)(F)F)nc1C [11-13] | logP (acid) 3.89 |
| Cc1cc(Cn2nc(C(F)(F)C(F)(F)F)nc2C(F)(F)F)ccc1NC(=O)c1cc(F)cc(Cl)c1C(=O)N[C@@H](C)CS(C)(=O)=O [10-15] | logP (acid) 3.37 |
| Cc1nc(Cn2cc(C(F)(F)C(F)(F)F)c(C(F)(F)C(F)(F)F)n2)ccc1NC(=O)c1cccc(Br)c1C(=O)N[C@@H](C)CS(C)(=O)=O [13-141] | logP (acid) 3.52 |
| Cc1nc(Cn2nc(C(F)F)c(Cl)c2C(F)F)ccc1NC(=O)c1cccc(Cl)c1C(=O)N[C@@H](C)CS(C)(=O)=O [13-76] | 2.48 |
| Cc1nc(Cn2nc(C(F)(F)C(F)(F)F)cc2C(F)(F)F)ccc1NC(=O)c1cccc(I)c1C(=O)N[C@@H](C)CS(C)(=O)=O [13-189] | logP (acid) 3.27 |
| Cc1nc(Cn2nc(C(F)(F)F)cc2C(F)(F)F)ccc1NC(=O)c1c(Br)ccc(Cl)c1C(=O)N[C@@H](C)CS(C)(=O)=O [11-15] | logP (acid) 3.05 |
| CNC(=O)c1cc(Cl)cc(Cl)c1C(=O)Nc1ccc(Cn2nc(C(F)(F)F)cc2C(F)(F)F)cc1C [12-1] | logP (acid) 3.69 |
| Cc1cc(Cn2nc(C(F)(F)F)cc2C(F)(F)F)ccc1NC(=O)c1c(Cl)ccc(Cl)c1C(=O)N[C@@H](C)CS(C)(=O)=O [11-23] | logP (acid) 3.40 |
| CSC[C@H](C)NC(=O)c1c(Cl)ccc(Br)c1C(=O)Nc1ccc(Cn2nc(C(F)(F)C(F)(F)F)nc2C(F)(F)F)cc1C [11-30] | logP (acid) 4.28 |

Same assay, conditions: reverse phase (C18) chromatography at pH2.3, 0.1% phosphoric acid aqueous solution / acetonitrile, linear gradient 10-95%

| Structure (SMILES) | logP (acid) |
| --- | --- |
| CSC[C@H](C)NC(=O)c1c(Cl)cccc1C(=O)Nc1cccc(Cn2nc(C(F)(F)C(F)(F)F)nc2-c2ccc(Cl)cc2)c1C [4-9] | logP (acid) 4.32 |
| CSC[C@H](C)NC(=O)c1c(Cl)cccc1C(=O)Nc1cccc(Cn2cc(C(F)(F)C(F)(F)F)c(C(F)(F)C(F)(F)F)n2)c1C [4-6] | logP (acid) 4.52 |

Same assay, conditions: reverse phase (C18) chromatography at pH2.3, 0.1% phosphoric acid aqueous solution / acetonitrile, linear gradient 10-95% acetonitrile

| Structure (SMILES) | logP (acid) |
| --- | --- |
| CSC[C@H](C)NC(=O)c1c(Br)cccc1C(=O)Nc1cc(F)c(Cn2nc(C(F)(F)F)cc2C(F)(F)F)cc1C [7-10] | logP (acid) 4.37 |
| CSC[C@H](C)NC(=O)c1c(SC)cccc1C(=O)Nc1cc(F)c(Cn2nc(C(F)(F)F)nc2C(F)(F)F)cc1C [7-23] | logP (acid) 3.96 |

Same assay, conditions: reverse phase (C18) chromatography column, pH 2.3; reverse phase (C18) chromatography, pH2.3, 0.1% phosphoric acid / acetonitrile gradient 10-95%; read-out: logP (acid)

| Structure (SMILES) | chromatographic logP |
| --- | --- |
| Cc1cc(Cn2nc(C(F)(F)F)cc2C(F)(F)F)ncc1[N+](=O)[O-] [SYNTHESIS EXAMPLE 68-2] | 3.64 |

Same assay, conditions: reverse phase (C18) chromatography, pH 2.3

| Structure (SMILES) | logP (acid) |
| --- | --- |
| CSC[C@H](C)NC(=O)c1c(Cl)cccc1C(=O)Nc1ccc(Cn2cnc(C(F)(F)C(F)(F)C(F)(F)F)n2)nc1C [14-310] | logP (acid) 3.16 |
| Cc1nc(Cn2nc(C(F)(F)F)n(C)c2=O)ccc1NC(=O)c1cccc(Cl)c1C(=O)N[C@@H](C)C[S+](C)[O-] (stereo partly shown) [14-321] | logP (acid) 1.37 |
| CCC(CC#N)NC(=O)c1c(Cl)cccc1C(=O)Nc1ccc(Cn2nc(C(F)(F)F)cc2C(F)(F)F)cc1C (stereo not shown) [13-277] | logP (acid) 3.42 |
| CC(=O)CC(C)NC(=O)c1c(Br)cccc1C(=O)Nc1ccc(Cn2nc(C(F)(F)C(F)(F)F)nc2C(F)(F)F)cc1C (stereo not shown) [14-296] | logP (acid) 3.46 |
| CSC[C@H](C)NC(=O)c1c(SC)cccc1C(=O)Nc1ccc(Cn2nc(C(F)(F)C(F)(F)F)cc2C(F)(F)F)cc1C [13-310] | logP (acid) 4.74 |
| CSC[C@H](C)NC(=O)c1c(Cl)cccc1C(=O)Nc1ccc(Cn2nc(C(F)(F)F)cc2N)cc1C [13-200] | logP (acid) 2.31 |
| CSC[C@H](C)NC(=O)c1c(Cl)cccc1C(=O)Nc1ccc(Cn2nc(C(F)(F)C(F)(F)F)n(N)c2=O)cc1C [14-421] | logP (acid) 2.79 |
| CSC[C@H](C)NC(=O)c1c(SC)cccc1C(=O)Nc1ccc(Cn2nc(C(F)(F)C(F)(F)F)c(C(F)(F)F)c2F)cc1C [13-308] | logP (acid) 4.43 |
| CSC[C@H](C)NC(=O)c1c(Cl)cccc1C(=O)Nc1ccc(Oc2cc(C(F)(F)F)n(C)n2)nc1C [13-228] | logP (acid) 2.98 |
| CSC[C@H](C)NC(=O)c1c(Cl)cccc1C(=O)Nc1ccc(Cn2nc(C(F)(F)F)cc2C(F)(F)F)nc1Cl [13-232] | logP (acid) 3.97 |
| CSC[C@H](C)NC(=O)c1c(Cl)cccc1C(=O)Nc1ccc(Cn2cnc(C(F)(F)C(F)F)n2)nc1C [14-309] | logP (acid) 2.38 |
| CSC[C@H](C)NC(=O)c1c(Cl)cccc1C(=O)Nc1ccc(Cn2nnc(C(F)(F)C(F)(F)C(F)(F)F)n2)nc1C [14-307] | logP (acid) 3.71 |
| Cc1cc(Cn2nc(C(F)(F)F)cc2C(F)(F)F)ccc1NC(=O)c1cccc(Cl)c1C(=O)NC(C)CN(C)C (stereo not shown) [13-191] | logP (acid) 1.81 |
| CSC[C@H](C)NC(=O)c1c(SC)cccc1C(=O)Nc1ccc(Cn2nc(C(F)(F)C(F)(F)F)nc2C(F)(F)C(F)(F)F)nc1C [14-387] | logP (acid) 4.33 |
| CSC[C@H](C)NC(=O)c1c(Cl)cccc1C(=O)Nc1ccc(Cc2cc(C(F)(F)C(F)(F)F)n[nH]2)cc1C [13-230] | logP (acid) 3.29 |
| Cc1nc(Cn2nc(C(F)(F)F)nc2C(F)(F)F)ccc1NC(=O)c1cccc(S(=O)(=O)N(C)C)c1C(=O)N[C@@H](C)CS(C)(=O)=O [14-369] | logP (acid) 2.72 |
| CSC[C@H](C)NC(=O)c1c(SC)cccc1C(=O)Nc1ccc(Cn2nc(C(F)(F)C(F)(F)F)n(C(F)F)c2=O)cc1C [14-389] | logP (acid) 3.53 |
| CSC[C@H](C)NC(=O)c1c(I)cccc1C(=O)Nc1ccc(Cn2nc(C(F)(F)C(F)(F)F)n(C(F)F)c2=O)cc1C [14-334] | logP (acid) 3.11 |
| CSC[C@H](C)NC(=O)c1c(C(=O)Nc2ccc(Cn3cc(C(F)(F)C(F)(F)F)c(C(F)(F)C(F)(F)F)n3)nc2C)cccc1S(C)(=O)=O [13-290] | logP (acid) 3.80 |
| CCN(CC)CC(C)NC(=O)c1cccc(Cl)c1C(=O)Nc1ccc(Cn2nc(C(F)(F)F)cc2C(F)(F)F)nc1C (stereo not shown) [13-285] | logP (acid) 2.53 |
| CSC[C@H](C)NC(=O)c1c(Cl)cccc1C(=O)Nc1ccc(Cn2nc(C(F)(F)C(F)F)nc2C(F)(F)F)nc1C [14-311] | logP (acid) 3.45 |
| Cc1nc(Cn2nc(C(F)(F)F)cc2C(F)(F)F)ccc1NC(=O)c1c(Cl)cccc1C(=O)NC(C)CN(C)C (stereo not shown) [13-283] | logP (acid) 2.4 |

Same assay, conditions: reverse phase (C18) chromatography, pH2.3, 0.1% phosphoric acid aqueous solution / acetonitrile, linear gradient 10-95% acetonitrile

| Structure (SMILES) | logP (acid) |
| --- | --- |
| Cc1cc(Cn2nc(C(F)(F)F)cc2C(F)(F)F)ccc1NC(=O)c1ccc(C(F)(F)F)c(Cl)c1C(=O)N[C@@H](C)CS(C)(=O)=O [9-17] | logP (acid) 3.22 |
| Cc1cc(Cn2nc(C(F)(F)C(F)(F)F)nc2C(F)(F)F)ccc1NC(=O)c1ccc(C(F)(F)F)c(Cl)c1C(=O)N[C@@H](C)CS(C)(=O)=O [9-25] | logP (acid) 3.70 |
| CSC[C@H](C)NC(=O)c1c(C(=O)Nc2ccc(Cn3nc(C(F)(F)C(F)(F)F)nc3C(F)(F)F)cc2C)ccc([N+](=O)[O-])c1Cl [9-15] | logP (acid) 4.27 |
| Cc1nc(Cn2nc(C(F)(F)F)cc2C(F)(F)F)ccc1NC(=O)c1ccc(F)c(Br)c1C(=O)N[C@@H](C)C[S+](C)[O-] (stereo partly shown) [9-11] | logP (acid) 2.51 |

Tested on: Spodoptera litura third instar larvae
Assay: Test to larva of Spodoptera litura (sweet potato leaf dip)
Assay type: in vivo
Details: foliar, 168 h; Spodoptera litura third instar larvae, active ingredient concentration 20 ppm, seven days later, 25° C.; read-out: insect mortality
Procedure: Test to Larva of Spodoptera litura
Solvent: dimethylformamide 3 parts by weight Emulsifier: polyoxyethylene alkyl phenyl ether 1 part by weight
In order to prepare preparations of suitable active compounds, 1 part by weight of each of the active compounds was blended with the above amount of the solvent containing the above amount of the emulsifier, and the resulting mixture was diluted to a prescribed concentration with water.
Leaves of sweet potato were immersed in the tested liquid medication of a prescribed concentration diluted with water. After air drying of the liquid medication, the leaves were put into a petri dish of a diameter of 9 cm, and 10 Spodoptera litura third instar larvae were released in the petri dish, and the petri dish was placed in a constant temperature room of 25° C. Two days later and four days later, leaves of sweet potato were added. Seven days later, the number of dead insects was examined, and insect mortality was calculated.
In the present test, results of 2 petri dishes for each compound were averaged.

| Structure (SMILES) | mortality at 20 ppm |
| --- | --- |
| Cc1cc(Cn2nc(C(F)(F)C(F)(F)F)nc2C(F)(F)F)ccc1NC(=O)c1cccc(Cl)c1C(=O)NC(C)(C)C=O [14-130, 3-chloro-N^2-(1,1-dimethyl-2-oxoethyl)-N^1-(2-methyl-4-{[3-(pentafluoroethyl)-5-(trifluoromethyl)-1H-1,2,4-triazol-1-yl]methyl}phenyl)-1,2-benzenedicarboxamide] | 100% |
| CSC[C@H](C)NC(=O)c1c(Cl)cccc1C(=O)Nc1ccc(CN2N=C(C(F)(F)C(F)(F)F)N(C(C)=O)C2C(F)(F)F)cc1C (stereo partly drawn) [16-6, N^1-(4-{[4-acetyl-3-(pentafluoroethyl)-5-(trifluoromethyl)-4,5-dihydro-1H-1,2,4-triazol-1-yl]methyl}-2-methylphenyl)-3-chloro-N^2-[(2S)-1-(methylsulfanyl)propan-2-yl]-1,2-benzenedicarboxamide] | 100% |
